In publication PMC12892976, “Alkylation-based optimization of antifungal FPPS inhibitors yields a potent, broad-spectrum lipophilic zoledronate derivative” (mBio, 2025):
Values after ≈ are worked out from the molar mass of the structure shown. Where two headings read alike, the source gives them in different places.

Assays:
Saccharomyces cerevisiae [1] = experiment: MIC/MFC broth microdilution (CLSI); format: cell-based; conditions: Saccharomyces cerevisiae S288c
Experimental: (§1) Antifungal susceptibility was determined by broth microdilution according to the CLSI guidelines described in M27-Ed4 ([16]). […] MFC was determined by back-plating drug-treated cultures from MIC broths onto SDA plates. The MFC was defined as the lowest concentration from which no colonies could be cultured.

Cryptococcus neoformans [2] = experiment: MIC/MFC broth microdilution (CLSI); conditions: Cryptococcus neoformans;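 note: susceptibility testing followed the CLSI M27-Ed4 broth microdilution document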
Experimental: as §1

Aspergillus fumigatus [3] = experiment: MIC/MFC broth microdilution (CLSI); conditions: ATCC204305
Experimental: as §1

Candida glabrata [4] = experiment: MIC/MFC broth microdilution (CLSI); conditions: Nakaseomyces glabratus, CBS138;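 note: broth microdilution following CLSI M27-Ed4, MFC taken as the lowest drug level yielding no growth once MIC wells were subcultured on SDA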
Experimental: as §1

Trichophyton rubrum [5] = experiment: checkerboard drug interaction (FICI, MICc);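 note: simplified diagonal checkerboard screen pairing azole antifungals with FPPS inhibitors, FICI calculated under the Loewe additivity model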; format: cell-based; conditions: T. rubrum
Experimental: (§2) Drug interactions between antifungals and FPPS inhibitors were investigated using a simplified checkerboard diagonal screening method ([45]). […] FICIs were determined according to the Loewe additivity model ([17]).

Trichophyton rubrum [6] = experiment: MIC/MFC broth microdilution (CLSI); conditions: Trichophyton rubrum
Experimental: as §1

[7] = system: Cryptococcus deuterogattii; experiment: MIC/MFC broth microdilution (CLSI); conditions: Cryptococcus deuterogattii;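 note: broth microdilution per CLSI M27-Ed4. MFC is the lowest concentration yielding no colonies when MIC broths are subcultured onto SDA plates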
Experimental: as §1

Aspergillus flavus [8] = experiment: checkerboard drug interaction (FICI, MICc);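 note: simplified diagonal checkerboard screen pairing azole antifungals with FPPS inhibitors, FICI calculated under the Loewe additivity model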; format: cell-based; design: INH MICc (KET:INH) / INH MICc (FLC:INH): unit not given beside the values; conditions: A. flavus
Saccharomyces cerevisiae [9] = experiment: checkerboard drug interaction (FICI, MICc); format: cell-based; design: INH MICc / INH MICc (ITR:INH) / INH MICc (KET:INH) / INH MICc (FLC:INH): unit not given beside the values;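 note: simplified diagonal checkerboard screen pairing antifungals with FPPS inhibitors, FICI calculated under the Loewe additivity model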
HEK-293T cells = experiment: MTT reduction cytotoxicity assay; format: cell-based; conditions: Homo sapiens, HEK-293T, 72 h, HEK-293T, MTT, 72 h; read-out: HEK IC50
Aspergillus fumigatus [10] = experiment: checkerboard drug interaction (FICI, MICc); format: cell-based;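 note: simplified diagonal checkerboard screen pairing antifungals with FPPS inhibitors against Aspergillus fumigatus, with FICI calculated under the Loewe additivity model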
Experimental: as §2

Cryptococcus neoformans [11] = experiment: checkerboard drug interaction (FICI, MICc);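 for all read-outs here: antifungal plus FPPS inhibitor pairs tested against Cryptococcus neoformans by simplified diagonal checkerboard screening, FICI computed under the Loewe additivity model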; format: cell-based; conditions: C. neoformans; for INH FD (MIC-MICc fold decrease): fold decrease of inhibitor MIC
Experimental: as §2

Aspergillus flavus [12] = experiment: MIC/MFC broth microdilution (CLSI); conditions: ATCC204304
Experimental: as §1

eight fungal species [13] = experiment: checkerboard interaction with azoles, summary across the eight species; format: cell-based; conditions: geometric mean MIC in combination with azoles
Description: Synergy between lipophilic FPPS inhibitors and azole antifungals was investigated by determining the fractional inhibitory concentration index (FICI) (Fig. 2; Table S1 Fig. S1) ([17]). […]. Derivatives PLA9 and 11, and PDA9, 11, and 12 antagonized azoles in C. albicans, C. neoformans, and C. deuterogattii, yet were largely synergistic in C. glabrata and S. cerevisiae. […].

Candida albicans [14] = experiment: MIC/MFC broth microdilution (CLSI); format: cell-based; conditions: Candida albicans SC5314
Experimental: as §1

[15] = system: Cryptococcus deuterogattii; experiment: checkerboard drug interaction (FICI, MICc);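 for all read-outs here: simplified diagonal checkerboard screen pairing antifungal drugs with FPPS inhibitors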; format: cell-based; conditions: C. deuterogattii; for INH FD (MIC-MICc fold decrease): fold decrease of inhibitor MIC
Experimental: as §2

eight fungal species [16] = experiment: MIC/MFC summary across the eight fungal species of Table 1; format: cell-based
Experimental: The antifungal activity of these compounds was evaluated according to CLSI guidelines ([16]).

Candida albicans [17] = experiment: checkerboard drug interaction (FICI, MICc);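 for all read-outs here: antifungal plus FPPS inhibitor combinations on Candida albicans tested by a simplified diagonal checkerboard screen, with FICI calculated under the Loewe additivity model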; format: cell-based; conditions: C. albicans; for INH FD (MIC-MICc fold decrease): fold decrease of inhibitor MIC
Experimental: as §2

Candida glabrata [18] = experiment: checkerboard drug interaction (FICI, MICc);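 for all read-outs here: simplified diagonal checkerboard screen pairing antifungals with FPPS inhibitors, FICI calculated under the Loewe additivity model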; format: cell-based; conditions: C. glabrata; for INH FD (MIC-MICc fold decrease): fold decrease of inhibitor MIC
Experimental: as §2

[19] = Fractional Inhibitory Concentration Index, fluconazole + inhibitor
[20] = Fractional Inhibitory Concentration Index, itraconazole + inhibitor
[21] = Fractional Inhibitory Concentration Index, ketoconazole + inhibitor
[22] = MIC of the inhibitor in combination with fluconazole
[23] = MIC of the inhibitor in combination with itraconazole
[24] = MIC of the inhibitor in combination with ketoconazole
[25] = MIC-MICc fold decrease of fluconazole, negative = increase
[26] = MIC-MICc fold decrease of itraconazole, negative = increase
[27] = MIC-MICc fold decrease of ketoconazole, negative = increase
[28] = MIC-MICc fold decrease of the inhibitor, with fluconazole
[29] = MIC-MICc fold decrease of the inhibitor, with itraconazole
[30] = MIC-MICc fold decrease of the inhibitor, with ketoconazole
[31] = FLC:INH combination, MIC of the inhibitor in combination with FLC
[32] = FLC:INH combination, fold decrease of FLC MIC
[33] = ITR:INH combination, MIC of the inhibitor in combination with ITR
[34] = ITR:INH combination, fold decrease of ITR MIC
[35] = KET:INH combination, MIC of the inhibitor in combination with KET
[36] = KET:INH combination, fold decrease of KET MIC

CCCCCCCCCCN1CCC[C@H]1C(=O)N[C@H](CC(=O)OC)C(=O)OC [dmPDA10]
MFC (Saccharomyces cerevisiae [1]): 16 µg/mL (≈ 40.1 µM) | MIC (Saccharomyces cerevisiae [1]): 16 µg/mL (≈ 40.1 µM) | MFC (Cryptococcus neoformans [2]): 32 µg/mL (≈ 80.3 µM) | MIC (Cryptococcus neoformans [2]): 16 µg/mL (≈ 40.1 µM) | MFC (Aspergillus fumigatus [3]): 32 µg/mL (≈ 80.3 µM) | MIC (Aspergillus fumigatus [3]): 32 µg/mL (≈ 80.3 µM) | MFC (Candida glabrata [4]): 32 µg/mL (≈ 80.3 µM) | MIC (Candida glabrata [4]): 32 µg/mL (≈ 80.3 µM) | FICI (FLC:INH) (Trichophyton rubrum [5]; [19]): ≥4 | FICI (ITR:INH) (Trichophyton rubrum [5]; [20]): ≥4 | FICI (KET:INH) (Trichophyton rubrum [5]; [21]): ≥4 | INH MICc (FLC:INH) (Trichophyton rubrum [5]; [22]): 64 | INH MICc (ITR:INH) (Trichophyton rubrum [5]; [23]): 64 | INH MICc (KET:INH) (Trichophyton rubrum [5]; [24]): 64 | FLC FD (FLC:INH) (Trichophyton rubrum [5]; [25]): 2 | ITR FD (ITR:INH) (Trichophyton rubrum [5]; [26]): 4 | KET FD (KET:INH) (Trichophyton rubrum [5]; [27]): 2 | INH FD (FLC:INH) (Trichophyton rubrum [5]; [28]): < -4 | INH FD (ITR:INH) (Trichophyton rubrum [5]; [29]): < -4 | INH FD (KET:INH) (Trichophyton rubrum [5]; [30]): < -4 | MFC (Trichophyton rubrum [6]): > 128 µg/mL | MIC (Trichophyton rubrum [6]): 8 µg/mL (≈ 20.1 µM) | MFC [7]: 64 µg/mL (≈ 161 µM) | MIC [7]: 16 µg/mL (≈ 40.1 µM) | FICI (FLC:INH) (Aspergillus flavus [8]; [19]): 0.75 | FICI (ITR:INH) (Aspergillus flavus [8]; [20]): 1.5 | FICI (KET:INH) (Aspergillus flavus [8]; [21]): 0.63 | INH MICc (FLC:INH) (Aspergillus flavus [8]; [22]): 32 | INH MICc (ITR:INH) (Aspergillus flavus [8]; [23]): 32 | INH MICc (KET:INH) (Aspergillus flavus [8]; [24]): 8 | FLC FD (FLC:INH) (Aspergillus flavus [8]; [25]): 4 | ITR FD (ITR:INH) (Aspergillus flavus [8]; [26]): 1 | KET FD (KET:INH) (Aspergillus flavus [8]; [27]): 2 | INH FD (FLC:INH) (Aspergillus flavus [8]; [28]): 2 | INH FD (ITR:INH) (Aspergillus flavus [8]; [29]): 2 | INH FD (KET:INH) (Aspergillus flavus [8]; [30]): 8 | FICI (FLC:INH) (Saccharomyces cerevisiae [9]; [19]): ≥4 | FICI (ITR:INH) (Saccharomyces cerevisiae [9]; [20]): 3 | FICI (KET:INH) (Saccharomyces cerevisiae [9]; [21]): 1.13 | INH MICc (FLC:INH) (Saccharomyces cerevisiae [9]; [22]): 32 | INH MICc (ITR:INH) (Saccharomyces cerevisiae [9]; [23]): 16 | INH MICc (KET:INH) (Saccharomyces cerevisiae [9]; [24]): 16 | FLC FD (FLC:INH) (Saccharomyces cerevisiae [9]; [25]): -2 | ITR FD (ITR:INH) (Saccharomyces cerevisiae [9]; [26]): -2 | KET FD (KET:INH) (Saccharomyces cerevisiae [9]; [27]): 8 | INH FD (FLC:INH) (Saccharomyces cerevisiae [9]; [28]): -2 | INH FD (ITR:INH) (Saccharomyces cerevisiae [9]; [29]): 1 | INH FD (KET:INH) (Saccharomyces cerevisiae [9]; [30]): 1 | IC50 (HEK-293T cells): 1.84 µg/mL (≈ 4.62 µM) | FICI (FLC:INH) (Aspergillus fumigatus [10]; [19]): 2.13 | FICI (ITR:INH) (Aspergillus fumigatus [10]; [20]): 0.63 | FICI (KET:INH) (Aspergillus fumigatus [10]; [21]): 2.25 | INH MICc (FLC:INH) (Aspergillus fumigatus [10]; [22]): 32 | INH MICc (ITR:INH) (Aspergillus fumigatus [10]; [23]): 2 | INH MICc (KET:INH) (Aspergillus fumigatus [10]; [24]): 32 | FLC FD (FLC:INH) (Aspergillus fumigatus [10]; [25]): 8 | ITR FD (ITR:INH) (Aspergillus fumigatus [10]; [26]): 2 | KET FD (KET:INH) (Aspergillus fumigatus [10]; [27]): 4 | INH FD (FLC:INH) (Aspergillus fumigatus [10]; [28]): -2 | INH FD (ITR:INH) (Aspergillus fumigatus [10]; [29]): 8 | INH FD (KET:INH) (Aspergillus fumigatus [10]; [30]): -2 | FICI (Cryptococcus neoformans [11]; FLC:INH combination): 0.75 | INH MICc (Cryptococcus neoformans [11]; [31]): 8 | FLC FD (MIC-MICc fold decrease) (Cryptococcus neoformans [11]; [32]): 4 | INH FD (MIC-MICc fold decrease) (Cryptococcus neoformans [11]; FLC:INH combination): 2 | FICI (Cryptococcus neoformans [11]; ITR:INH combination): 0.75 | INH MICc (Cryptococcus neoformans [11]; [33]): 8 | ITR FD (MIC-MICc fold decrease) (Cryptococcus neoformans [11]; [34]): 4 | INH FD (MIC-MICc fold decrease) (Cryptococcus neoformans [11]; ITR:INH combination): 2 | FICI (Cryptococcus neoformans [11]; KET:INH combination): 0.75 | INH MICc (Cryptococcus neoformans [11]; [35]): 8 | KET FD (MIC-MICc fold decrease) (Cryptococcus neoformans [11]; [36]): 4 | INH FD (MIC-MICc fold decrease) (Cryptococcus neoformans [11]; KET:INH combination): 2 | MFC (Aspergillus flavus [12]): 64 µg/mL (≈ 161 µM) | MIC (Aspergillus flavus [12]): 64 µg/mL (≈ 161 µM) | GM fungal MICc (eight fungal species [13]): 14.7 | MFC (Candida albicans [14]): 32 µg/mL (≈ 80.3 µM) | MIC (Candida albicans [14]): 16 µg/mL (≈ 40.1 µM) | FICI ([15]; FLC:INH combination): 1.25 | INH MICc [15, 31]: 16 | FLC FD (MIC-MICc fold decrease) [15, 32]: 4 | INH FD (MIC-MICc fold decrease) ([15]; FLC:INH combination): 1 | FICI ([15]; ITR:INH combination): 1.5 | INH MICc [15, 33]: 16 | ITR FD (MIC-MICc fold decrease) [15, 34]: 2 | INH FD (MIC-MICc fold decrease) ([15]; ITR:INH combination): 1 | FICI ([15]; KET:INH combination): 0.53 | INH MICc [15, 35]: 8 | KET FD (MIC-MICc fold decrease) [15, 36]: 32 | INH FD (MIC-MICc fold decrease) ([15]; KET:INH combination): 2 | Geometric mean MFC (eight fungal species [16]; across eight species): 45.3 µg/mL | MFC (eight fungal species [16]; across eight species, read-out: Geometric mean MFC): 45.3 µg/mL (≈ 114 µM) | MIC (eight fungal species [16]; geometric mean across eight species, read-out: GM fungal MIC): 20.7 µg/mL (≈ 51.9 µM) | MIC (eight fungal species [16]; read-out: Geometric mean MIC): 20.7 µg/mL (≈ 51.9 µM) | FICI (Candida albicans [17]; FLC:INH combination): 1.5 | INH MICc (Candida albicans [17]; [31]): 8 | FLC FD (MIC-MICc fold decrease) (Candida albicans [17]; [32]): 1 | INH FD (MIC-MICc fold decrease) (Candida albicans [17]; FLC:INH combination): 2 | FICI (Candida albicans [17]; ITR:INH combination): 0.75 | INH MICc (Candida albicans [17]; [33]): 4 | ITR FD (MIC-MICc fold decrease) (Candida albicans [17]; [34]): 2 | INH FD (MIC-MICc fold decrease) (Candida albicans [17]; ITR:INH combination): 4 | FICI (Candida albicans [17]; KET:INH combination): 0.75 | INH MICc (Candida albicans [17]; [35]): 4 | KET FD (MIC-MICc fold decrease) (Candida albicans [17]; [36]): 2 | INH FD (MIC-MICc fold decrease) (Candida albicans [17]; KET:INH combination): 4 | FICI (Candida glabrata [18]; FLC:INH combination): ≥4 | INH MICc (Candida glabrata [18]; [31]): 16 | FLC FD (MIC-MICc fold decrease) (Candida glabrata [18]; [32]): 1 | INH FD (MIC-MICc fold decrease) (Candida glabrata [18]; FLC:INH combination): 1 | FICI (Candida glabrata [18]; ITR:INH combination): 3 | INH MICc (Candida glabrata [18]; [33]): 8 | ITR FD (MIC-MICc fold decrease) (Candida glabrata [18]; [34]): 1 | INH FD (MIC-MICc fold decrease) (Candida glabrata [18]; ITR:INH combination): 2 | FICI (Candida glabrata [18]; KET:INH combination): ≥4 | INH MICc (Candida glabrata [18]; [35]): 16 | KET FD (MIC-MICc fold decrease) (Candida glabrata [18]; [36]): -2 | INH FD (MIC-MICc fold decrease) (Candida glabrata [18]; KET:INH combination): 1
